Experimental data from US12459958B2, “Tricyclic compounds as HPK1 inhibitor and the use thereof” (BEIGENE, LTD., priority 2019, dated 2025).

Biological target: T1, HPK1 kinase (aa1-346, Life Technologies) (Homo sapiens, UniProt Q92918)
T1 construct: HPK1 kinase (aa1-346, Life Technologies); purchased Life Technologies
T1 sequence (Q92918 1-346): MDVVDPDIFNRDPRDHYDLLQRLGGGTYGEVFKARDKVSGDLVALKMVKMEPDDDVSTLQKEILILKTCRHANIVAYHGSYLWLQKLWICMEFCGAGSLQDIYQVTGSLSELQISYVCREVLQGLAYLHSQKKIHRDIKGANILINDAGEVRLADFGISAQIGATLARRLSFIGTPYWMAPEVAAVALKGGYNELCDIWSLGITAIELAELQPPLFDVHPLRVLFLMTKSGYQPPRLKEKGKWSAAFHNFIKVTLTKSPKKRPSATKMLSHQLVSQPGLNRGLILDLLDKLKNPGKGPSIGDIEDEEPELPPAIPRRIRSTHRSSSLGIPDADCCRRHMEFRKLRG
Experiment: HPK Kinase Activity Assay at 1 mM ATP (TR-FRET)
Type: biochemical
Settings: HPK1 kinase 40 nM, 0.5 μM STK1 substrate, read-out: Enzymatic activity IC50
Procedure: HPK Kinase Activity Assay at 1 mM ATP
Compounds disclosed herein were tested for inhibition of HPK1 kinase (aa1-346, Life Technologies) activity in assays based on the time-resolved fluorescence-resonance energy transfer (TR-FRET) methodology. The assays were carried out in 384-well low volume black plates in a reaction mixture containing HPK1 kinase (40 nM), 1 mM ATP, 0.5 μM STK1 substrate and 0-10 μM compound in buffer containing 50 mM HEPES, 0.01% BSA, 0.1 mM Orthovanadate, 10 mM MgCl2, 1 mM DTT, pH=7.0, 0.005% Tween-20. The kinase was incubated with the compounds disclosed herein or DMSO for 60 minutes at room temperature and the reaction was initiated by the addition of ATP and STK1 substrate. After reaction at room temperature for 120 minutes, an equal volume of stop/detection solution was added according to the manufacture's instruction (CisBio). The stop/detection solution contained STK Antibody-Cryptate and XL665-conjugated streptavidin in Detection Buffer. The TR-FRET signals (ratio of fluorescence emission at 665 nm over emission at 620 nm with excitation at 337 nm wavelength) were recorded on a PHERAstar FS plate reader (BMG Labtech). Phosphorylation of STK1 substrate led to the binding of STK Antibody-Cryptate to the biotinylated STK1 substrate, which places fluorescent donor (Eu^3+ crypate) in close proximity to the accepter (Streptavidin-XL665), thus resulting in a high degree of fluorescence resonance energy transfer. The inhibition of HPK1 in presence of increasing concentrations of compounds was calculated based on the ratio of fluorescence at 665 nm to that at 620 nm. The IC50 for each compound was derived from fitting the data to the four-parameter logistic equation by Graphpad Prism software.

Row | Structure (SMILES) | IC50 [nM]
1 | Cc1cc(-c2cnc3[nH]cc(-c4ccc(C(=O)N(C)C[C@@H]5CCOC5)cc4)c3n2)cc2c1N1CCN(C)C[C@@H]1CC2 [Example 10B, 4-(2-((S)-3,10-dimethyl-2,3,4,4a,5,6-hexahydro-1H-pyrazino[1,2-a]quinolin-8-yl)-5H-pyrrolo[2,3-b]pyrazin-7-yl)-N-methvl-N—(((S)-tetrahydrofuran-3-yl)methyl)benzamide] | 17
2 | Cc1cc(-c2cnc3[nH]cc(-c4ccc(C(=O)N(C)CC(C)(C)O)cc4)c3n2)cc2c1N1CCN(C)C[C@H]1CC2 [Example 12A, (R)-4-(2-(3,10-dimethyl-2,3,4,4a,5,6-hexahydro-1H-pyrazino[1,2-a]quinolin-8-yl)-5H-pyrrolo[2,3-b]pyrazin-7-yl)-N-(2-hydroxy-2-methylpropyl)-N-methylbenzamide] | 52
3 | Cc1cc(-c2cnc3[nH]cc(-c4ccc(C(=O)N5CC6(COC6)C5)cc4)c3n2)cc2c1N1CCN(C)C[C@@H]1CC2 [Example 9B, (S)-(4-(2-(3,10-dimethyl-2,3,4,4a,5,6-hexahydro-1H-pyrazino[1,2-a]quinolin-8-yl)-5H-pyrrolo[2,3-b]pyrazin-7-yl)phenyl)(2-oxa-6-azaspiro[3.3]heptan-6-yl)methanone] | 21
4 | Cc1cc(-c2cnc3[nH]cc(-c4ccc(C(=O)N(C)C[C@H]5CCOC5)cc4)c3c2)cc2c1N1CCN(C)C[C@@H]1CC2 [Example 5B, 4-(5-((S)-3,10-dimethyl-2,3,4,4a,5,6-hexahydro-1H-pyrazino[1,2-a]quinolin-8-yl)-1H-pyrrolo[2,3-b]pyridin-3-yl)-N-methyl-N—(((R)-tetrahydrofuran-3-yl)methyl)benzamide] | 27
5 | Cc1cc(-c2cnc3[nH]cc(-c4ccc(C(=O)N(C)C[C@@H]5CCOC5)cc4)c3c2)cc2c1N1CCN(C)C[C@H]1CC2 [Example 4A, 4-(5-((R)-3,10-dimethyl-2,3,4,4a,5,6-hexahydro-1H-pyrazino[1,2-a]quinolin-8-yl)-1H-pyrrolo[2,3-b]pyridin-3-yl)-N-methyl-N—(((S)-tetrahydrofuran-3-yl)methyl)benzamide] | 14
6 | Cc1cc(-c2c[nH]c3ncc(-c4cc(C)c5c(c4)CC[C@H]4CN(C)CCN54)nc23)ccc1C(=O)N(C)CC(C)(C)O [Example 13B, (S)-4-(2-(3,10-dimethyl-2,3,4,4a,5,6-hexahydro-1H-pyrazino[1,2-a]quinolin-8-yl)-5H-pyrrolo[2,3-b]pyrazin-7-yl)-N-(2-hydroxy-2-methylpropyl)-N,2-dimethylbenzamide] | 96
7 | Cc1cc(-c2c[nH]c3ncc(-c4cc(C)c5c(c4)CC[C@H]4CN(C)CCN54)nc23)ccc1C(=O)N1CC2(COC2)C1 [Example 8B, (S)-(4-(2-(3,10-dimethyl-2,3,4,4a,5,6-hexahydro-1H-pyrazino[1,2-a]quinolin-8-yl)-5H-pyrrolo[2,3-b]pyrazin-7-yl)-2-methylphenyl)(2-oxa-6-azaspiro[3.3]heptan-6-yl)methanone] | 61
8 | Cc1cc(-c2cnc3[nH]cc(-c4ccc(C(=O)N(C)C[C@@H]5CCOC5)cc4)c3c2)cc2c1N1CCN(C)C[C@@H]1CC2 [Example 4B, 4-(5-((S)-3,10-dimethyl-2,3,4,4a,5,6-hexahydro-1H-pyrazino[1,2-a]quinolin-8-yl)-1H-pyrrolo[2,3-b]pyridin-3-yl)-N-methyl-N—(((S)-tetrahydrofuran-3-yl)methyl)benzamide] | 15
9 | Cc1cc(-c2cnc3[nH]cc(-c4ccc(C(=O)N(C)C)cc4)c3n2)cc2c1N1CCN(C)C[C@H]1CC2 [Example 7A, (R)-4-(2-(3,10-dimethyl-2,3,4,4a,5,6-hexahydro-1H-pyrazino[1,2-a]quinolin-8-yl)-5H-pyrrolo[2,3-b]pyrazin-7-yl)-N,N-dimethylbenzamide] | 23
10 | Cc1cc(-c2cnc3[nH]cc(-c4ccc(C(=O)N(C)C[C@H](C)O)cc4)c3c2)cc2c1N1CCN(C)C[C@@H]1CC2 [Example 2B, 4-(5-((S)-3,10-dimethyl-2,3,4,4a,5,6-hexahydro-1H-pyrazino[1,2-a]quinolin-8-yl)-1H-pyrrolo[2,3-b]pyridin-3-yl)-N—((S)-2-hydroxypropyl)-N-methylbenzamide] | 19
11 | Cc1cc(-c2cnc3[nH]cc(-c4ccc(C(=O)N(C)C[C@H](C)O)cc4)c3c2)cc2c1N1CCN(C)C[C@H]1CC2 [Example 2A, 4-(5-((R)-3,10-dimethyl-2,3,4,4a,5,6-hexahydro-1H-pyrazino[1,2-a]quinolin-8-yl)-1H-pyrrolo[2,3-b]pyridin-3-yl)-N—((S)-2-hydroxypropyl)-N-methylbenzamide] | 14
12 | Cc1cc(-c2c[nH]c3ncc(-c4cc(C)c5c(c4)CC[C@@H]4CN(C)CCN54)nc23)ccc1C(=O)N(C)CC(C)(C)O [Example 13A, (R)-4-(2-(3,10-dimethyl-2,3,4,4a,5,6-hexahydro-1H-pyrazino[1,2-a]quinolin-8-yl)-5H-pyrrolo[2,3-b]pyrazin-7-yl)-N-(2-hydroxy-2-methylpropyl)-N,2-dimethylbenzamide] | 101
13 | Cc1cc(-c2c[nH]c3ncc(-c4cc(C)c5c(c4)CC[C@H]4CN(C)CCN54)nc23)ccc1C(=O)N(C)C[C@@H]1CCOC1 [Example 11B, 4-(2-((S)-3,10-dimethyl-2,3,4,4a,5,6-hexahydro-1H-pyrazino[1,2-a]quinolin-8-yl)-5H-pyrrolo[2,3-b]pyrazin-7-yl)-N,2-dimethyl-N—(((S)-tetrahydrofuran-3-yl)methyl)benzamide] | 53
14 | Cc1cc(-c2cnc3[nH]cc(-c4ccc(C(=O)N(C)C[C@@H](C)O)cc4)c3c2)cc2c1N1CCN(C)C[C@@H]1CC2 [Example 3B, 4-(5-((S)-3,10-dimethyl-2,3,4,4a,5,6-hexahydro-1H-pyrazino[1,2-a]quinolin-8-yl)-1H-pyrrolo[2,3-b]pyridin-3-yl)-N—((R)-2-hydroxypropyl)-N-methylbenzamide] | 18
15 | Cc1cc(-c2cnc3[nH]cc(-c4ccc(C(=O)N(C)CC(C)(C)O)cc4)c3n2)cc2c1N1CCN(C)C[C@@H]1CC2 [Example 12B, (S)-4-(2-(3,10-dimethyl-2,3,4,4a,5,6-hexahydro-1H-pyrazino[1,2-a]quinolin-8-yl)-5H-pyrrolo[2,3-b]pyrazin-7-yl)-N-(2-hydroxy-2-methylpropyl)-N-methylbenzamide] | 52
16 | Cc1cc(-c2c[nH]c3ncc(-c4cc(C)c5c(c4)CC[C@@H]4CN(C)CCN54)nc23)ccc1C(=O)N1CC2(COC2)C1 [Example 8A, (R)-(4-(2-(3,10-dimethyl-2,3,4,4a,5,6-hexahydro-1H-pyrazino[1,2-a]quinolin-8-yl)-5H-pyrrolo[2,3-b]pyrazin-7-yl)-2-methylphenyl)(2-oxa-6-azaspiro[3.3]heptan-6-yl)methanone] | 58
17 | Cc1cc(-c2c[nH]c3ncc(-c4cc(C)c5c(c4)CC[C@H]4CN(C)CCN54)nc23)ccc1C(=O)N(C)C [Example 6B, (S)-4-(2-(3,10-dimethyl-2,3,4,4a,5,6-hexahydro-1H-pyrazino[1,2-a]quinolin-8-yl)-5H-pyrrolo[2,3-b]pyrazin-7-yl)-N,N,2-trimethylbenzamide] | 47
18 | Cc1cc(-c2cnc3[nH]cc(-c4ccc(C(=O)N5CC6(COC6)C5)cc4)c3n2)cc2c1N1CCN(C)C[C@H]1CC2 [Example 9A, (R)-(4-(2-(3,10-dimethyl-2,3,4,4a,5,6-hexahydro-1H-pyrazino[1,2-a]quinolin-8-yl)-5H-pyrrolo[2,3-b]pyrazin-7-yl)phenyl)(2-oxa-6-azaspiro[3.3]heptan-6-yl)methanone] | 17
19 | Cc1cc(-c2c[nH]c3ncc(-c4cc(C)c5c(c4)CC[C@@H]4CN(C)CCN54)nc23)ccc1C(=O)N(C)C [Example 6A, (R)-4-(2-(3,10-dimethyl-2,3,4,4a,5,6-hexahydro-1H-pyrazino[1,2-a]quinolin-8-yl)-5H-pyrrolo[2,3-b]pyrazin-7-yl)-N,N,2-trimethylbenzamide] | 36
20 | Cc1cc(-c2cnc3[nH]cc(-c4ccc(C(=O)N(C)C)cc4)c3c2)cc2c1N1CCN(C)CC1CC2 (stereo not drawn) [Example 1, 4-(5-(3,10-dimethyl-2,3,4,4a,5,6-hexahydro-1H-pyrazino[1,2-a]quinolin-8-yl)-1H-pyrrolo[2,3-b]pyridin-3-yl)-N,N-dimethylbenzamide] | 31
21 | Cc1cc(-c2cnc3[nH]cc(-c4ccc(C(=O)N(C)C[C@@H](C)O)cc4)c3c2)cc2c1N1CCN(C)C[C@H]1CC2 [Example 3A, 4-(5-((R)-3,10-dimethyl-2,3,4,4a,5,6-hexahydro-1H-pyrazino[1,2-a]quinolin-8-yl)-1H-pyrrolo[2,3-b]pyridin-3-yl)-N—((R)-2-hydroxypropyl)-N-methylbenzamide] | 21
